Experimental data: paper PMC4958397, “Synthesis, antibacterial and antiproliferative potential of some new 1-pyridinecarbonyl-4-substituted thiosemicarbazide derivatives” (Medicinal Chemistry Research, 2016)
Values after ≈ are worked out from the molar mass of the structure shown. Read-outs that look alike come from different tables or passages of the source.

Key:
Type in all cases: cell-based
[1] = Cytotoxicity MTT assay; conditions: human, BJ cells (normal human skin fibroblasts), read-out: CC50 (concentration required for a 50 % reduction of cell viability)
Method: (§1) Normal human skin fibroblasts (BJ), human hepatocellular carcinoma (HepG2) and human breast adenocarcinoma (MCF-7) were obtained from American Type Culture Collection (ATCC, England, UK). The cells were cultured in Eagle’s minimum essential medium (EMEM, ATCC) supplemented with 10 % fetal bovine serum (FBS, PAA Laboratories), 100 U/mL penicillin and 100 μg/mL streptomycin (Sigma-Aldrich). In the case of the MCF-7 cell line, the culture medium was additionally supplemented with 0.01 μg/mL of human recombinant insulin (Sigma-Aldrich). The cells were grown in 75-cm^2 flasks and maintained at 37 °C in a humidified atmosphere of 5 % CO2 and 95 % air.
In order to determine the cytotoxicity, BJ cells were seeded in flat-bottom 96-well plates in 100 μL of a complete growth medium at a concentration of 1.7 × 10^4 cells/well and incubated for 24 h at 37 °C in a humidified atmosphere of 5 % CO2. Immediately before drug treatment, the synthesized compounds (1, 2, 4, 5, 6, 7, 10) were dissolved in dimethyl sulfoxide (DMSO, Sigma-Aldrich) and then diluted in cell culture medium supplemented with 2 % FBS. […] After incubation, the growth medium was replaced with 100 μL of the appropriate serial dilutions of the investigated compounds. Untreated cells were used as negative controls, and different concentrations of DMSO were used as the solvent control. The cell cultures were incubated at 37 °C for 24 h. The cytotoxicity was estimated using the 3-(4,5-dimethylthiazol-2-yl)-2,5-diphenyltetrazolium bromide (MTT) assay as described by Mosmann with some modifications (Mosmann, [1983]). Briefly, the cells were incubated for 3 h with 25 μL of MTT solution ([…] in PBS buffer) per well. The MTT assay is a rapid colorimetric method based on the conversion of mitochondrial succinate dehydrogenase from yellow, soluble tetrazolium salt to blue formazan crystals to determine the number of viable cells. In order to dissolve formazan crystals in live cells, 100 μL of SDS-HCl solution (10 % SDS in 0.01 N HCl) was added per well. After overnight incubation, absorbance was measured at 570 nm using microplate reader (BioTek ELx50). The MTT assay was repeated in three independent experiments performed in octuplicates. The half-maximal cytotoxic concentration (CC50) was defined as the compound concentration (μg/mL) required to reduce cell viability to 50 %. Therapeutic index (TI) is a widely accepted parameter to represent the specificity of antibacterial agents for human (Begg et al., [1999]). In this study, the in vitro TI values were calculated as the ratio of CC50 (cytotoxic activity) and MIC (antibacterial activity); thus, greater values of in vitro therapeutic index indicate safer specificity for eukaryotic cells.
(§2) The data were analyzed using one-way ANOVA test followed by Dunnett’s test. Differences were considered as significant with p < 0.01 (GraphPad Prism 5, Version 5.04 Software). The values of CC50 and IC50 were calculated via 4-parameter nonlinear regression analyses using GraphPad Prism 5, version 5.04.

[2] = system: BJ (normal human skin fibroblasts); test: Cell proliferation MTT assay; conditions: 96 h; for IC50: Homo sapiens, Skin fibroblast, MTT, mean ± SD, read-out: IC50, antiproliferative activity, BJ
Method: as §1
(§3) In order to evaluate cell proliferation, the cells were seeded in flat-bottom 96-well plates in 100 μL of a complete growth medium at a concentration of 2 × 10^3 cells/well (BJ), 1.5 × 10^4 cells/well (HepG2) and 2.5 × 10^4 cells/well (MCF-7) and incubated for 24 h at 37 °C in a humidified atmosphere of 5 % CO2. Before drug exposure, the synthesized compounds (1–10) were dissolved in DMSO and then diluted in a complete culture medium supplemented with 10 % FBS. Subsequently, the growth medium was gently removed and the cells were exposed to 100 μL of serial dilutions of the investigated compounds at concentrations ranging from 0.05 to 200 μg/mL. Untreated cells were used as negative controls, and different concentrations of DMSO were used as the solvent control. After 96-h incubation at 37 °C in a humidified atmosphere of 5 % CO2, cell proliferation was assessed using the MTT test as described previously (Cytotoxicity assay). The MTT assay was repeated in three independent experiments in quadruplicates. The half-maximal inhibitory concentration (IC50) was defined as the compound concentration (μg/mL) required to inhibit cell proliferation to 50 %.
as §2, with “The results of the in vitro cell culture experiments were presented as mean values ± standard deviation (SD) or as mean values ± standard error of the mean (SEM). The data” for “The data”

[3] = system: HepG2 (human hepatocellular carcinoma); test: Cell proliferation MTT assay; conditions: 96 h; for IC50: Homo sapiens, HepG2, MTT, read-out: IC50, antiproliferative activity, HepG2
Method: as §1, §3
as §2, with “The results of the in vitro cell culture experiments were presented as mean values ± standard deviation (SD) or as mean values ± standard error of the mean (SEM). The data” for “The data”

[4] = system: MCF-7 (human breast adenocarcinoma); test: Cell proliferation MTT assay; conditions: MCF7, 96 h, read-out: IC50, antiproliferative activity, MCF-7
Method: as §1, §3
as §2, with “The results of the in vitro cell culture experiments were presented as mean values ± standard deviation (SD) or as mean values ± standard error of the mean (SEM). The data” for “The data”

[5] = 10 μg/mL, proliferation reduced to

[H]/N=C(\N/C(=N/[H])NCCCCCCNC(=N)NC(=N)Nc1ccc(Cl)cc1)Nc1ccc(Cl)cc1 [CLX, chlorhexidine digluconate, reference compound] showed a CC50 at 24 h [1] of 8.46 µg/mL.
For O=C(NNC(=S)Nc1ccccc1Cl)c1ccccn1 [Compound 2, 4-(2-Chlorophenyl)-1-(pyridin-2-yl)carbonylthiosemicarbazide], the “cell proliferation compared to the control, BJ” value [2, 5] was 32%, the IC50 [2] was 3.06 ± 0.46 µg/mL (≈ 9.97 µM) and the “cell proliferation compared to the control, HepG2” value [3, 5] was 18.9%. For the same molecule, the IC50 ([3]; mean ± SD) was 2.71 ± 0.23 µg/mL and the IC50 ([4]; mean ± SD) was 14.8 ± 1.03 µg/mL.
O=C(NNC(=S)Nc1ccc(Cl)cc1Cl)c1ccccn1 [Compound 4, 4-(2,4-Dichlorophenyl)-1-(pyridin-2-yl)carbonylthiosemicarbazide] gave a CC50 at 24 h [1] of 19.5 µg/mL (≈ 57.1 µM), an IC50 [2] of 1.86 ± 0.44 µg/mL (≈ 5.45 µM) and an IC50 ([3]; mean ± SD) of 2.09 µg/mL. For the same molecule, the IC50 ([3]; same value in µM) was 6.12 µM, the IC50 ([4]; mean ± SD) was 8.63 µg/mL and the IC50 ([4]; same value in µM) was 25.3 µM.
Work on CSc1ccc(NC(=S)NNC(=O)c2cccnc2)cc1 [Compound 6, 4-(4-Methylthiophenyl)-1-(pyridin-3-yl)carbonylthiosemicarbazide] yielded a CC50 at 24 h [1] of 917 µg/mL (≈ 2880 µM).
With O=C(NNC(=S)Nc1ccc(Cl)cc1Cl)c1cccnc1 [Compound 7, 4-(2,4-Dichlorophenyl)-1-(pyridin-3-yl)carbonylthiosemicarbazide] the CC50 at 24 h [1] was 88.3 µg/mL (≈ 259 µM).
For CCOc1ccc2nc3cc(N)ccc3c(N)c2c1 [Ethacridine lactate, ethacridine lactate, reference compound], the CC50 at 24 h [1] was 6.88 µg/mL.
